In patent publication US9840501B2, “Morpholin-pyridine derivatives” (Hoffmann-La Roche Inc., priority 2014, dated 2017):

Tests used:
rat TAAR1 = rat TAAR1 (Rattus norvegicus (Rat), UniProt Q923Y9); assay: Radioligand binding assay on rat TAAR1; settings: rat TAAR1, membranes of stably transfected HEK-293 cells; second value of the pair; read-out: Ki (μM) mouse/rat: rat
How it was run: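 Membranes from HEK293 cells stably expressing rat TAAR1, in 20 mM HEPES-NaOH pH 7.4; displacement of 3[H]-(S)-4-[(ethyl-phenyl-amino)-methyl]-4,5-dihydro-oxazol-2-ylamine, nonspecific binding with 10 μM unlabeled ligand. Compounds 10 pM to 10 μM in duplicate, 1 h at 4 °C, filtration and scintillation counting.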

mouse TAAR1 = mouse TAAR1 (Mus musculus (Mouse), UniProt Q923Y8); assay: Radioligand binding assay on mouse TAAR1; settings: mouse TAAR1, membranes of stably transfected HEK-293 cells; first value of the pair; read-out: Ki (μM) mouse/rat: mouse
mouse TAAR1, sequence (Q923Y8 whole entry): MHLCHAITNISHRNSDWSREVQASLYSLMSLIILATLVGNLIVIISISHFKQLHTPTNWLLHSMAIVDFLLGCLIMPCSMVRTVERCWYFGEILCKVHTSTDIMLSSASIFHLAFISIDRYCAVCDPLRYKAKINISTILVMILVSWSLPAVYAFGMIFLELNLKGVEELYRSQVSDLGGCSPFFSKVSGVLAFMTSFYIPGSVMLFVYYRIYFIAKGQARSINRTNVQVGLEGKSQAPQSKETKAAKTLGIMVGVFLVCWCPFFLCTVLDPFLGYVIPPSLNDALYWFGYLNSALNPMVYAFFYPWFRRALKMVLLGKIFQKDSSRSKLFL
How it was run: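 Membranes from HEK293 cells stably expressing mouse TAAR1, in 20 mM HEPES-NaOH pH 7.4 with 0.1 mM EDTA, incubated 1 h at 4 °C with ^3[H]-(S)-4-[(ethyl-phenyl-amino)-methyl]-4,5-dihydro-oxazol-2-ylamine and compounds (10 pM to 10 μM, duplicates). Nonspecific binding with 10 μM unlabeled ligand; bound radioactivity counted after filtration.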

rat TAAR1, sequence (Q923Y9 whole entry): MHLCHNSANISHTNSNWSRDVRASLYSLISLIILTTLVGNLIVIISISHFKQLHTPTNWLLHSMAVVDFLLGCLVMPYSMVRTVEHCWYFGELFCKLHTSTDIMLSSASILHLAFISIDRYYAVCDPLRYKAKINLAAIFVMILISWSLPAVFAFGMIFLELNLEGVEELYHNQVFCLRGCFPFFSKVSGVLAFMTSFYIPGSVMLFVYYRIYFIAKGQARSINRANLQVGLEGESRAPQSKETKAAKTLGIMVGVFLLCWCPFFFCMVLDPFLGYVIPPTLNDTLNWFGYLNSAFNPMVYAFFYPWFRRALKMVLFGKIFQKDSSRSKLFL

| SMILES | Ki (rat TAAR1) | Ki (mouse TAAR1) |
| --- | --- | --- |
| Cc1cc(C(=O)Nc2ccc([C@H]3CNCCO3)nc2)nc(C(F)(F)F)n1 [Example 68, (R)-6-Methyl-N-(6-(morpholin-2-yl)pyridin-3-yl)-2-(trifluoromethyl)pyrimidine-4-carboxamide] | 0.0469 µM | 0.0731 µM |
| Cc1cc(C(=O)Nc2ccc([C@@H]3CNCCO3)nc2)nc(C(F)(F)F)n1 [Example 69, (S)-6-Methyl-N-(6-(morpholin-2-yl)pyridin-3-yl)-2-(trifluoromethyl)pyrimidine-4-carboxamide] | 0.0512 µM | 0.0762 µM |
| CCc1n[nH]c(C(=O)Nc2ccc([C@@H]3CNCCO3)nc2)c1Cl [Example 76, 4-Chloro-3-ethyl-N-[6-[(2S)-morpholin-2-yl]-3-pyridyl]-1H-pyrazole-5-carboxamide] | 0.0384 µM | 0.0063 µM |
| CCc1n[nH]c(C(=O)Nc2ccc([C@@H]3CNCCO3)nc2)c1F [Example 77, 3-Ethyl-4-fluoro-N-[6-[(2S)-morpholin-2-yl]-3-pyridyl]-1H-pyrazole-5-carboxamide] | 0.302 µM | 0.0121 µM |
| CCc1n[nH]c(C(=O)Nc2ccc([C@@H]3CNCCO3)nc2)c1Br [Example 78, 4-Bromo-3-ethyl-N-[6-[(2S)-morpholin-2-yl]-3-pyridyl]-1H-pyrazole-5-carboxamide] | 0.041 µM | 0.0056 µM |
| CCCc1n[nH]c(C(=O)Nc2ccc([C@@H]3CNCCO3)nc2)c1F [Example 79, 4-Fluoro-N-[6-[(2S)-morpholin-2-yl]-3-pyridyl]-3-propyl-1H-pyrazole-5-carboxamide] | 0.0568 µM | 0.0074 µM |
| O=C(Nc1ccc([C@@H]2CNCCO2)nc1)c1[nH]nc(C2CC2)c1F [Example 80, 3-Cyclopropyl-4-fluoro-N-[6-[(2S)-morpholin-2-yl]-3-pyridyl]-1H-pyrazole-5-carboxamide] | 0.0856 µM | 0.0065 µM |
| O=C(Nc1ccc([C@@H]2CNCCO2)nc1)c1[nH]nc(C2CC2)c1Br [Example 81, 4-Bromo-3-cyclopropyl-N-[6-[(2S)-morpholin-2-yl]-3-pyridyl]-1H-pyrazole-5-carboxamide] | 0.0152 µM | 0.006 µM |
| CCc1n[nH]c(C(=O)Nc2ccc([C@H]3CNCCO3)nc2)c1Cl [Example 82, 4-Chloro-3-ethyl-N-[6-[(2R)-morpholin-2-yl]-3-pyridyl]-1H-pyrazole-5-carboxamide] | 0.0925 µM | 0.0039 µM |
| CCc1n[nH]c(C(=O)Nc2ccc([C@H]3CNCCO3)nc2)c1F [Example 83, 3-Ethyl-4-fluoro-N-[6-[(2R)-morpholin-2-yl]-3-pyridyl]-1H-pyrazole-5-carboxamide] | 0.757 µM | 0.0083 µM |
| CCc1n[nH]c(C(=O)Nc2ccc([C@H]3CNCCO3)nc2)c1Br [Example 84, 4-Bromo-3-ethyl-N-[6-[(2R)-morpholin-2-yl]-3-pyridyl]-1H-pyrazole-5-carboxamide] | 0.0685 µM | 0.0063 µM |
| CCCc1n[nH]c(C(=O)Nc2ccc([C@H]3CNCCO3)nc2)c1F [Example 85, 4-Fluoro-N-[6-[(2R)-morpholin-2-yl]-3-pyridyl]-3-propyl-1H-pyrazole-5-carboxamide] | 0.15 µM | 0.0046 µM |
| O=C(Nc1ccc([C@H]2CNCCO2)nc1)c1[nH]nc(C2CC2)c1F [Example 86, 3-Cyclopropyl-4-fluoro-N-[6-[(2R)-morpholin-2-yl]-3-pyridyl]-1H-pyrazole-5-carboxamide] | 0.156 µM | 0.0074 µM |
| O=C(Nc1ccc([C@H]2CNCCO2)nc1)c1[nH]nc(C2CC2)c1Br [Example 87, 4-Bromo-3-cyclopropyl-N-[6-[(2R)-morpholin-2-yl]-3-pyridyl]-1H-pyrazole-5-carboxamide] | 0.0291 µM | 0.0053 µM |
| CC(C)Cc1cc(C(=O)Nc2ccc([C@@H]3CNCCO3)nc2)[nH]n1 [Example 88, 3-Isobutyl-N-[6-[(2S)-morpholin-2-yl]-3-pyridyl]-1H-pyrazole-5-carboxamide] | 0.011 µM | 0.0113 µM |
| CC(C)Cc1n[nH]c(C(=O)Nc2ccc([C@@H]3CNCCO3)nc2)c1F [Example 89, 4-Fluoro-3-isobutyl-N-[6-[(2S)-morpholin-2-yl]-3-pyridyl]-1H-pyrazole-5-carboxamide] | 0.0297 µM | 0.0133 µM |
| CCCCc1n[nH]c(C(=O)Nc2ccc([C@@H]3CNCCO3)nc2)c1F [Example 90, 3-Butyl-4-fluoro-N-[6-[(2S)-morpholin-2-yl]-3-pyridyl]-1H-pyrazole-5-carboxamide] | 0.0269 µM | 0.0038 µM |
| CCCCc1cc(C(=O)Nc2ccc([C@@H]3CNCCO3)nc2)[nH]n1 [Example 91, 3-Butyl-N-[6-[(2S)-morpholin-2-yl]-3-pyridyl]-1H-pyrazole-5-carboxamide] | 0.0061 µM | 0.0031 µM |
| CC(C)c1cc(C(=O)Nc2ccc([C@@H]3CNCCO3)nc2)n(CC(F)(F)F)n1 [Example 92, 5-Isopropyl-N-[6-[(2S)-morpholin-2-yl]-3-pyridyl]-2-(2,2,2-trifluoroethyl)pyrazole-3-carboxamide] | 0.0597 µM | 0.262 µM |
| CC(C)n1nc(OCC(F)(F)F)cc1C(=O)Nc1ccc([C@@H]2CNCCO2)nc1 [Example 93, 2-Isopropyl-N-[6-[(2S)-morpholin-2-yl]-3-pyridyl]-5-(2,2,2-trifluoroethoxy)pyrazole-3-carboxamide] | 0.0023 µM | 0.0215 µM |
| CC(C)Cc1cc(C(=O)Nc2ccc([C@H]3CNCCO3)nc2)[nH]n1 [Example 94, 3-Isobutyl-N-[6-[(2R)-morpholin-2-yl]-3-pyridyl]-1H-pyrazole-5-carboxamide] | 0.107 µM | 0.0216 µM |
| CC(C)Cc1n[nH]c(C(=O)Nc2ccc([C@H]3CNCCO3)nc2)c1F [Example 95, 4-Fluoro-3-isobutyl-N-[6-[(2R)-morpholin-2-yl]-3-pyridyl]-1H-pyrazole-5-carboxamide] | 0.0534 µM | 0.0113 µM |
| CCCCc1n[nH]c(C(=O)Nc2ccc([C@H]3CNCCO3)nc2)c1F [Example 96, 3-Butyl-4-fluoro-N-[6-[(2R)-morpholin-2-yl]-3-pyridyl]-1H-pyrazole-5-carboxamide] | 0.0554 µM | 0.0035 µM |
| CCCCc1cc(C(=O)Nc2ccc([C@H]3CNCCO3)nc2)[nH]n1 [Example 97, 3-Butyl-N-[6-[(2R)-morpholin-2-yl]-3-pyridyl]-1H-pyrazole-5-carboxamide] | 0.0387 µM | 0.0043 µM |
| CC(C)c1cc(C(=O)Nc2ccc([C@H]3CNCCO3)nc2)n(CC(F)(F)F)n1 [Example 98, 5-Isopropyl-N-[6-[(2R)-morpholin-2-yl]-3-pyridyl]-2-(2,2,2-trifluoroethyl)pyrazole-3-carboxamide] | 0.0442 µM | 0.24 µM |
| CC(C)n1nc(OCC(F)(F)F)cc1C(=O)Nc1ccc([C@H]2CNCCO2)nc1 [Example 99, 2-Isopropyl-N-[6-[(2R)-morpholin-2-yl]-3-pyridyl]-5-(2,2,2-trifluoroethoxy)pyrazole-3-carboxamide] | 0.0041 µM | 0.0242 µM |
| CC(C)c1n[nH]c(C(=O)Nc2ccc([C@H]3CNCCO3)nc2)c1Cl [Example 115, 4-Chloro-3-isopropyl-N-[6-[(2R)-morpholin-2-yl]-3-pyridyl]-1H-pyrazole-5-carboxamide] | 0.009 µM | 0.0087 µM |
